Test results as given in a melting point compilation (Tetko et al.; mined from patent text by program, amines drawn as free bases though some values may be those of a salt).

Work on `O=C(O)c1ccc(OCCOc2ccccc2)cc1O` yielded a melting point of 114 to 116 °C. Work on `Cc1[nH]c(-c2ccccc2)c(N)c1C(=O)c1ccccc1` yielded a melting point of 203 to 205 °C. Work on `CCOC(=O)c1cc2ccc(CBr)cc2o1` yielded a melting point of 95 to 102 °C. With `Cc1ccc(C(=O)OCc2c3ccccc3cc3ccccc23)cc1` the melting point was 124 °C. Work on `CN1CCCC(Nc2ccnc3cc(Cl)ccc23)C1` (racemic) yielded a melting point of 149 to 150 °C. With `CN(C)S(=O)(=O)c1cccc2c1Sc1ccc(O)cc1N2CCCN1CCC(CCO)CC1` the melting point was 163 to 165 °C. In the case of `CC1OCCN1CCNc1ccc(NCCN2CCOC2C)c2c1C(=O)c1c(O)ccc(O)c1C2=O` (configuration not stated), the melting point is reported as 161 to 168 °C. Compound `O=C(CCCCN1CCN(c2cccc(Cl)c2Cl)CC1)N1CCc2ccccc21` has a melting point of 121 to 123 °C. `CCCCCCCCS(=O)(=O)Nc1cc(C(F)(F)F)ccc1Oc1ccccc1C(=O)O` showed a melting point of 167 to 168 °C. Work on `COc1cc(NC(C)C)ccc1CN1C(=O)C(C)(c2ccccc2Cl)c2cc(Cl)ccc21` (configuration not stated) yielded a melting point of 137 °C. Work on `COc1ccc(F)cc1C(C)(C)CC(O)(Cc1cccc(-c2cccnc2)c1)C(F)(F)F` (configuration not stated) yielded a melting point of 148 to 150 °C. Work on `CC(C)CP1C(O)C(O)P(CC(C)C)C(O)C1O` (configuration not stated) yielded a melting point of 173 to 175 °C. `CCCC(C(C)C)C(CN)CC(=O)O` (configuration not stated) gave a melting point of 160 to 170 °C. Work on `COc1cc(C(=O)N2CCN(c3ccc(N)cc3)CC2)cc(OC)c1O` yielded a melting point of 182 to 183 °C. In the case of `CCSc1cc(C)nc(SCC)c1NC(=O)CN1CCN(CCSc2nc3cccc(C(F)(F)F)c3o2)CC1`, the melting point is reported as 107 to 108 °C. With `COC(=O)c1ccc(-c2ccc3cc(OCCCCC=C=O)c(C45CC6CC(CC(C6)C4)C5)cc3c2)cc1` the melting point was 209 to 210 °C. With `O=C(Nc1ccc2ccc(-c3ccccc3)nc2n1)c1cccc(Br)c1` the melting point was 175 °C. `O=C1c2c(Cl)cccc2-n2cnc(-c3noc(C(F)(F)F)n3)c2[C@@H]2CCCN12` showed a melting point of 220 to 221 °C. Work on `COc1cccc(S(=O)(=O)c2ccc3c(c2)c(CCNC(=O)OC(C)(C)C)c(C)n3C)c1` yielded a melting point of 115 to 122 °C. Compound `CC(=O)Oc1ccc(/C=C/c2cc(C)cc(C)c2)cc1` has a melting point of 84.9 to 85 °C. `CCOC(=O)CCCCN1CCc2ccc(NS(=O)(=O)c3ccccc3)cc2C1` showed a melting point of 120 to 121 °C. With `Cc1ccc2c(c1C)OC(C(=O)O)C2` (configuration not stated) the melting point was 182 °C. For `NC(=O)c1ccccc1OCC1CC1`, the melting point was 102 to 105 °C. Work on `COc1cccc(C(=O)CS(C)=O)c1N` (configuration not stated) yielded a melting point of 106 to 108 °C. Work on `O=C1NCc2cc(C(c3ccccc3)n3ccnc3)ccc2N1` (configuration not stated) yielded a melting point of 222 °C. `CCCCCCCCN1CC=C(c2c[nH]c(-c3ccc(F)cc3)c2-c2ccncc2)CC1` showed a melting point of 173 to 175 °C. Work on `Cc1cnc(C(=O)c2[nH]c3cc(Cl)ccc3c2CC(=O)O)c(C)c1` yielded a melting point of 199 to 200 °C. For `ClCCC1(CCCl)c2ccccc2Sc2ccccc21`, the melting point was 61 to 62 °C. For `CC(O)(CCN1CCOCC1)c1ccc(-c2ccc(Cl)cc2)cc1` (configuration not stated), the melting point was 106 to 108 °C. `O=C(NC1N=C(c2ccccc2F)c2ccccc2NC1=O)OCc1ccccc1` (racemic) gave a melting point of 208 °C. `CCOc1ccc(-c2nc(CCC(O)c3ccccc3OC)cs2)cc1OCC` (configuration not stated) gave a melting point of 78.2 to 79 °C. With `Nc1cc(OCc2ccccc2)ccc1C=C(Br)Br` the melting point was 93 to 94 °C. `Nc1nc2ccccc2c2c1ncn2CCCCNC(=O)c1ccccc1Oc1ccccc1` gave a melting point of 93 to 94 °C. `O=C(O)c1ccc(-c2nc(-c3ccc(Cl)s3)co2)cc1` showed a melting point of 300 °C. For `Nc1ccc(S(=O)(=O)C(F)(F)F)c2sc3ccccc3c12`, the melting point was 108 °C. With `CC(C)CC1(CC(=O)NO)CCN(CCc2ccccc2)C1=O` (configuration not stated) the melting point was 123 to 124 °C. `CCOC(=O)c1cn(-c2cccc(O)c2)cn1` showed a melting point of 164 to 165 °C. `Fc1ccc(Nc2ncnc3cnc(NC4CCCNC4)nc23)cc1Cl` (configuration not stated) showed a melting point of 194 to 199 °C. For `O=C1CCCC1c1ccc(Cl)cc1` (configuration not stated), the melting point was 154 to 155 °C. Work on `CS(=O)(=O)c1ccc(C2=C(Br)CCC2)cc1` yielded a melting point of 103 to 104 °C. Work on `CCOC(=O)c1cc2cc(C)c(C)cc2[nH]1` yielded a melting point of 164 °C. `CCOC(C#N)c1ccc2ccccc2c1` (configuration not stated) showed a melting point of 53 to 54 °C. For `COP(=O)(OC)c1cc(Oc2c(Cl)cc(C(F)(F)F)cc2Cl)ccc1[N+](=O)[O-]`, the melting point was 106 to 107 °C. `O=C(O)CCc1cccc(-c2nc(=O)c3ccccc3s2)n1` gave a melting point of 243 to 244 °C. `Cc1cc(C)cc(NC(=O)Cc2ccc(OC3(C(=O)O)CCCC(C)C3)cc2)c1` (configuration not stated) showed a melting point of 175 to 177 °C. `COc1ccc(-c2c(-c3cc(OC)c(OC)c(OC)c3)ncn2-c2ccccc2)cc1O` gave a melting point of 176 to 177 °C. `COc1cc(/C=C2/C(=O)OC(=O)C2=C(C)C)cc(OC)c1` gave a melting point of 161 to 162 °C. `Cc1ccc(-c2ccc3c(c2)C=C(C(=O)NC2CCN(CC4=CCCCCCC4)CC2)CCO3)cc1` gave a melting point of 148 to 151 °C. Compound `NC(=O)N1C(=O)C(=C(OC(=O)c2ccc(C(=O)OCc3ccccc3)cc2)c2cccs2)c2cc(F)c(Cl)cc21` has a melting point of 212 to 218 °C. In the case of `COc1ccc(C(O)(c2ccc(C(C)C)cc2)C(C)C)c(OC)c1` (configuration not stated), the melting point is reported as 80 to 81 °C. `N#Cc1ccc(NC(=CNCC(=O)O)[N+](=O)[O-])cc1` gave a melting point of 230 °C. Work on `CC(C)(C)OC(=O)NC1CCCCCC=CC2CC2(C(=O)NS(=O)(=O)C2CC2)NC(=O)C2CC(OC(=O)c3ccc4nccnc4c3)CN2C1=O` (configuration not stated) yielded a melting point of 158 to 160 °C. Work on `Nc1ccc(O)c(N)c1` yielded a melting point of 78 °C. Compound `COc1cc([N+](=O)[O-])c(N)cc1C(N)=O` has a melting point of 250 to 257 °C. Work on `CCc1cc(OC)c(C=O)cc1OC` yielded a melting point of 46 to 47 °C. With `COC(=O)C1CCCN(COS(C)(=O)=O)c2c1cc(O)c1ccccc21` (configuration not stated) the melting point was 113 to 115 °C. Work on `NC(=S)Nc1ccc(F)cc1-c1ccccc1` yielded a melting point of 188 to 190 °C. `COC(=O)c1c(-c2ccco2)ccnc1C(=O)c1nc(OC)cc(OC)n1` gave a melting point of 135 to 140 °C. With `O=C1c2ccccc2C(=O)N1CCCCOc1ccc(-c2ccncn2)cc1` the melting point was 100 to 102 °C. Compound `Clc1cccc2c(CN3CC=C(CCc4ccccc4)CC3)n[nH]c12` has a melting point of 171 to 172 °C. `COC(=O)C1=C(CN2CCN(C)CC2)Nc2ccnc(OC(C)C)c2C1c1ccccc1` (configuration not stated) gave a melting point of 149 to 151 °C. In the case of `COc1ccc2cc(Nc3ccc(O)cc3)ccc2c1`, the melting point is reported as 153 to 154 °C. For `Brc1ccc2c(c1)COCc1cc(Br)ccc1-2`, the melting point was 129 to 131 °C. Compound `CC(C)(C(=O)OCc1ccccc1)N1COC(CO)=C(c2ccccc2)C1=O` has a melting point of 115 to 116 °C. Work on `CN1CCC(=O)N(c2ccccc2Cl)C1=O` yielded a melting point of 120 to 123 °C. In the case of `CCCS(=O)c1sc(C(N)=O)c2c1-c1c(cnn1CC(F)(F)F)CC2` (configuration not stated), the melting point is reported as 165 to 166 °C. Compound `CC(C)(C)c1cc(C(=O)NCC(=O)O)ccc1OCc1ccccc1` has a melting point of 172 to 174 °C. Work on `CCCCOc1ccc(SCCSc2ccc(OCCCC)cc2)cc1` yielded a melting point of 102 to 103 °C. In the case of `CCOC(Nc1ccc(C(=O)O)cc1)C(=O)c1ccc(Oc2ccc(Cl)c3ccccc23)cc1` (configuration not stated), the melting point is reported as 155 to 165 °C. For `CCOC(=O)c1cc(-n2c(=O)c3c(n(C)c2=O)CCC3)ccc1[N+](=O)[O-]`, the melting point was 188 to 190 °C. In the case of `COc1cccc(C(O)CCN2CC=C(c3ccc(Cl)cc3)CC2)c1` (configuration not stated), the melting point is reported as 100 to 102 °C. With `Nc1cc2c(=O)cc(C(=O)O)[nH]c2ccc1=O` the melting point was greater than 250 °C. For `Cc1c(NC(=O)CC(CSC(=O)[C@@H](C)NC(=O)C2CCCCC2)c2ccccc2)cccc1C(=O)O` (some centres not stated), the melting point was 175 to 180 °C. With `O=C(O)COc1cc2c(c(Cl)c1Cl)C(=O)C(c1ccccc1)C2` (configuration not stated) the melting point was 181 to 185 °C. Compound `CC12CCC3C(CC=C4CC(O)CCC43C)C1CC(Br)C2=O` (configuration not stated) has a melting point of 167 to 168 °C. With `CN(C)c1cccc(C(=O)COc2cccc(Cl)c2)c1` the melting point was 70 to 72 °C. For `O=C1N(Cc2ncccn2)c2ccccc2C12COc1cc3c(cc12)OCCO3` (configuration not stated), the melting point was 210 to 212 °C. With `CC(C)(C)c1csc(-c2cc3cc(CCl)ccc3o2)n1` the melting point was 117 to 119 °C. In the case of `CCOc1cc(OCC)cc(-c2c(Cl)ncn2-c2ccc(S(C)(=O)=O)cc2)c1`, the melting point is reported as 227 to 231 °C. Work on `Cc1cc2c(cc1C(=O)c1c(C(F)(F)F)ccnc1Cl)OCO2` yielded a melting point of 119 to 122 °C. Work on `O=C(COc1ccon1)NCCO[N+](=O)[O-]` yielded a melting point of 67 to 69 °C. `COC(=O)c1cc(C#N)ccc1NC(=O)c1cccc(S(=O)(=O)N2CCOCC2)c1` gave a melting point of 184 to 185 °C. `CN1CCc2c(-c3ccc(F)cc3)c(C(=O)N(C)Cc3cc(C(F)(F)F)cc(C(F)(F)F)c3)n(C)c(=O)c2C1` showed a melting point of 156 to 157 °C. `COc1cc2c(cc1OC)CC(O)(CC(=O)O)CC2` (configuration not stated) gave a melting point of 100 to 102 °C. `CCCOc1ccc(-c2ccc(=S)[nH]n2)cc1OC` showed a melting point of 170 °C. `COCNC(=O)NC1CC(C)(C)N(C)C(C)(C)C1` gave a melting point of 105 °C. `COc1cc2c3ccc(OC)c(OC)c3n(Cc3ccc(C#N)cc3)c2cc1OC` gave a melting point of 147 to 148 °C. With `Fc1ccc(-c2nc3occn3c2-c2ccnc(N[C@H]3CN4CCC3CC4)n2)cc1` the melting point was 217 to 218 °C. With `C[Si](C)(C)c1ccc(Cl)c(Cl)c1C(=O)O` the melting point was 117 to 119 °C. Compound `Cc1c2c(c3ccccc3c1NC(=O)CC(C)(C)C)OCC2c1ccc(C(C)C)cc1` (configuration not stated) has a melting point of 183 to 184 °C. `CC(=O)N1CCc2cc(CC(C)Br)ccc21` (configuration not stated) showed a melting point of 124 to 126 °C. `CCCCOc1ccc(NC(=O)c2ccccc2C(c2ccc(O)cc2)c2ccc(O)cc2)cc1` gave a melting point of 110 to 112 °C. In the case of `CC(C)n1cc(-c2ccc(C(O)c3ccccc3)cc2)c2c(N)ncnc21` (configuration not stated), the melting point is reported as 279 to 281 °C. `N#Cc1ccc(C(F)(F)F)c(C(F)(F)F)c1` showed a melting point of 71 to 72 °C. Work on `CCOC(=O)CNc1nc(Cl)ccc1[N+](=O)[O-]` yielded a melting point of 77.5 to 80 °C. `O=C(c1c[nH]c2cc([N+](=O)[O-])ccc12)C(F)(F)F` gave a melting point of 263 to 265 °C. `COc1ccc2[nH]nc(N3CCN(CCCn4c(=O)[nH]c5ccccc54)CC3)c2c1` showed a melting point of 195 to 197 °C. In the case of `NC(=O)Nc1cccc2c1C(=O)c1c-2n[nH]c1-c1csc(Cl)c1`, the melting point is reported as greater than 300 °C. `CN1CCC(c2c[nH]c3ccc(Sc4ccccn4)cc23)CC1` showed a melting point of 83 °C. `CN(C)C(=O)Cc1c(-c2ccccc2)nn2cccnc12` gave a melting point of 156 to 158 °C. In the case of `COC(=O)c1sc(C)cc1C`, the melting point is reported as 98 to 101 °C. With `C=C(c1ccc(Br)cc1)c1ccc(OCCCC)cc1` the melting point was 71.8 to 73 °C.
